According to patent US8808737B2 (Endo Pharmaceuticals Inc., priority 2007, dated 2014):

Experiments:
[1] = in vivo; cited from earlier work
[2] = Example 5: correlation of oxymorphone and metabolite plasma AUC / oral clearance with creatinine clearance; type: in vivo, human; conditions: linear regression
Source text: Creatinine clearance (ClCR) was estimated at screening using the following Cockroft and Gault^8 equation: […]
All pharmacokinetic results are summarized using appropriate descriptive statistics.
The potential association between plasma AUC and creatinine clearance was explored using linear regression techniques and the results are summarized in Table 36 and FIG. 16.

[3] = Pain levels (VAS, categorical scale) vs plasma oxymorphone and 6-hydroxyoxymorphone after a single dose; type: in vivo, human; conditions: single dose of oxymorphone, FIGS. 1-4
Procedure: For these tests, pain was measured using a Visual Analog Scale (VAS) or a Categorical Scale. The VAS scales consisted of a horizontal line, 100 mm in length. The left-hand end of the scale (0 mm) was marked with the descriptor “No Pain” and the right-hand end of the scale (100 mm) was marked with the descriptor “Extreme Pain”. Patients indicated their level of pain by making a vertical mark on the line. The VAS score was equal to the distance (in mm) from the left-hand end of the scale to the patient's mark. For the categorical scale, patients completed the following statement, “My pain at this time is” using the scale None=0, Mild=1, Moderate=2, or Severe=3.

[4] = Example 5: urinary excretion of oxymorphone and metabolites after EN3202 in renal impairment; conditions: for Mean (SD) Percent of Dose Recovered in Urine (0-120 hours): single oral 20-mg dose of EN3202; for half-life: human, urine, oral, 20 mg, Mean urinary elimination half-life
Procedure: (§1) Attempts were made to match controls with the renal impaired patients with respect to age, gender, and weight. […] Naltrexone (50 mg) was administered on the evening prior to administration of the EN3202 dose.
Each subject was to be instructed to void at the end of each interval (so that each collection interval began with an empty bladder). The void prior to administration of the test medication (time 0) served as the pre-dose blank and was not be included in the collection container.
(§2) Plasma and urine pharmacokinetic variables were calculated from the concentration data using standard, non-compartmental methods as outlined in the following table.

[5] = Example 5: plasma pharmacokinetics of oxymorphone and metabolites after EN3202 in renal impairment vs healthy controls; conditions: for Mean bioavailability ratio (90% confidence interval) for AUC relative to controls / Mean bioavailability ratio (90% confidence interval) for Cmax relative to controls: ln-transformed; for AUC: AUC in plasma (mean, untransformed); for AUC(0-t): AUCT in plasma (mean, untransformed); for Cmax: Cmax in plasma (mean, untransformed); for half-life: t½, terminal elimination half-life in plasma (mean)
Procedure: as §1
In order to protect the subjects from potential opioid-related adverse events, a single 50-mg dose of the opioid antagonist ReVia® (naltrexone HCl) was administered at 20:00 the evening prior to administration of test medication. […] Subjects continued fasting until four (4) hours after dose administration. The subjects remained in an upright posture (sitting or standing) for 1 hour after dose administration. All doses were administered with 240 mL of water (room temperature), and the subjects were instructed to drink all the water.
as §2
All pharmacokinetic results are summarized using appropriate descriptive statistics. Continuous variables were compared between renally impaired and control groups using appropriate parametric statistics. 90% confidence intervals were calculated for the differences or ratios between the renally impaired and control groups. In addition, the association between oral clearance (and other pharmacokinetic variables) and the severity of renal insufficiency (based on creatinine clearance) was explored.

[6] = AUC normalized for body weight vs creatinine clearance
[7] = oral clearance vs creatinine clearance
[8] = plasma AUC vs creatinine clearance
[9] = EN3202 20 mg, severe renal impairment
[10] = EN3202 20 mg, mild renal impairment
[11] = EN3202 20 mg, moderate renal impairment
[12] = human, plasma, oral, 20 mg, single 20 mg dose of EN3202, Healthy Controls
[13] = human, plasma, oral, 20 mg, single 20 mg dose of EN3202, Mild Impairment
[14] = human, plasma, oral, 20 mg, single 20 mg dose of EN3202, Moderate Impairment
[15] = human, plasma, oral, 20 mg, single 20 mg dose of EN3202, Severe Impairment
[16] = single 20 mg dose of EN3202, Moderate Impairment
[17] = single 20 mg dose of EN3202, Severe Impairment

CN1CC[C@]23c4c5ccc(O)c4O[C@H]2C(=O)CC[C@@]3(O)[C@H]1C5 [Oxymorphone, 14-hydroxydihydromorphinone, reference compound]
Oral bioavailability [1]: about 10% | AUC/wt vs. CLCR: R-square [2, 6]: 0.2898 | AUC/wt vs. CLCR: Slope [2, 6]: −0.0013 | CL/F vs. CLCR: R-square [2, 7]: 0.2592 | CL/F vs. CLCR: Slope [2, 7]: 0.1229 | AUC vs. CLCR: R-square [2, 8]: 0.2400 | AUC vs. CLCR: Slope [2, 8]: −0.1852 | Relation between pain relief and blood plasma level [3]: there is a correlation | Mean percentage of the administered dose excreted in the urine ([4]; EN3202 20 mg, 0-120 hours, severe renal impairment): 0.38% | Mean percentage of the dose excreted in the urine unchanged, reduced relative to healthy controls [4, 9]: approximately 50% | Mean (SD) Percent of Dose Recovered in Urine (0-120 hours) ([4]; healthy controls): 0.77 (0.36) % | half-life ([4]; EN3202 20 mg, healthy controls): 12.5 h | half-life [4, 10]: 12.1 h | half-life [4, 11]: 13.9 h | half-life [4, 9]: 21 h | Mean (SD) Percent of Dose Recovered in Urine (0-120 hours) ([4]; subjects with mild renal impairment): 1.37 (2.10) % | Mean (SD) Percent of Dose Recovered in Urine (0-120 hours) ([4]; subjects with moderate renal impairment): 0.66 (0.29) % | Mean (SD) Percent of Dose Recovered in Urine (0-120 hours) ([4]; subjects with severe renal impairment): 0.38 (0.19) % | Mean bioavailability ratio (90% confidence interval) for AUC relative to controls [5, 10]: 1.2559 (0.8566-1.8414) | Mean bioavailability ratio (90% confidence interval) for Cmax relative to controls [5, 10]: 1.3772 (0.9359-2.0265) | Mean bioavailability ratio (90% confidence interval) for AUC relative to controls [5, 11]: 1.5722 (1.0723-2.3051) | Mean bioavailability ratio (90% confidence interval) for Cmax relative to controls [5, 11]: 1.6494 (1.1209-2.4270) | Mean AUC increased relative to healthy controls [5, 9]: 1.7 fold | Mean bioavailability ratio (90% confidence interval) for AUC relative to controls [5, 9]: 1.6529 (1.1274-2.4234) | Mean bioavailability ratio (90% confidence interval) for Cmax relative to controls [5, 9]: 1.8042 (1.2261-2.6549) | Mean increase in plasma AUC values relative to healthy controls ([5]; EN3202 20 mg, subjects with creatinine clearance values, 30 mL/min): approximately 1.8 fold | Tmax ([5]; human, plasma, oral, 20 mg): 3.5 h | AUC [5, 12]: 18.9 ng·h/mL | AUC [5, 13]: 21.7 ng·h/mL | AUC [5, 14]: 27.9 ng·h/mL | AUC [5, 15]: 34.5 ng·h/mL | AUC(0-t) [5, 12]: 15.8 ng·h/mL | AUC(0-t) [5, 13]: 19 ng·h/mL | AUC(0-t) [5, 14]: 26.1 ng·h/mL | AUC(0-t) [5, 15]: 29.7 ng·h/mL | Cmax [5, 12]: 1.16 ng/mL | Cmax [5, 13]: 1.47 ng/mL | Cmax [5, 14]: 1.75 ng/mL | Cmax [5, 15]: 2.04 ng/mL | half-life [5, 12]: 13.5 h | half-life [5, 13]: 12.4 h | half-life [5, 15]: 13.3 h | CLo, clearance after oral administration (mean) ([5]; single 20 mg dose of EN3202, Healthy Controls): 22.07 L/min | CLo, clearance after oral administration (mean) ([5]; single 20 mg dose of EN3202, Mild Impairment): 16.14 L/min | CLo, clearance after oral administration (mean) [5, 16]: 13.53 L/min | t½, terminal elimination half-life in plasma (mean) [5, 16]: 9.92 h | AUC in plasma (mean, untransformed) [5, 17]: 32.46 ng·h/mL | CLo, clearance after oral administration (mean) [5, 17]: 13.79 L/min | Tmax in plasma (median) [5, 17]: 2.0 h
